Values quoted from earlier work in US6720472B2, “HMGI proteins in cancer and obesity” (University of Medicine and Dentistry of New Jersey, priority 1996, dated 2004).
Entries after “also recorded” stand apart in the source; their conditions may differ. Where two headings read alike, the source gives them in different places.

Legend:
HMG-I proteins = conditions: in vitro, A T-rich DNA
[1] = system: ascites tumors [Ehrlich and sarcoma 180 (S180)]
[2] = system: solid tumors (Ehrlich carcinoma, S180, Walker carcinoma, and Oberling-Guerin-Guerin myeloma)
[3] = system: B-DNA dodecamer of sequence C-G-C-G-A-A-T-T-BrC-G-C-G; conditions: X-ray analysis of the complex

| SMILES | competition with the BD peptide and the HMG-I proteins for DNA binding (HMG-I proteins) | inhibition on ascites tumors ([1]; Ehrlich and sarcoma 180 (S180) ascites tumors) | mitotic damages of tumor cells ([1]; Ehrlich ascites tumor) | mitotic index of the Ehrlich ascites tumor ([1]; Ehrlich ascites tumor) | competition with the BD peptide and the HMG-I proteins for DNA binding (HMG-I proteins; listed as distamycin) | growth of solid tumors [2] | binding site on DNA [3] |
| --- | --- | --- | --- | --- | --- | --- | --- |
| CN1CCN(c2ccc3[nH]c(-c4ccc5[nH]c(-c6ccc(O)cc6)nc5c4)nc3c2)CC1 [Hoechst 33258, Hoechst 33258 (bisbenzimide)] | compete with the HMGI proteins for binding to AT-rich DNA; also recorded: effectively compete | – | – | – | – | – | – |
| Cn1cc(NC(=O)c2cc(NC(=O)c3cc(NC=O)cn3C)cn2C)cc1C(=O)NCCC(=N)N [distamycin A] | compete with the HMGI proteins for binding to AT-rich DNA | strong inhibition | induces mitotic damages | decrease the mitotic index | effectively compete | delays the growth | – |
| Cn1cc(NC(=O)c2cc(NC(=O)CN=C(N)N)cn2C)cc1C(=O)NCCC(=N)N [netropsin] | compete with the HMGI proteins for binding to AT-rich DNA; also recorded: effectively compete | – | – | – | – | – | binds within the minor groove |
